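Exposure lasted 48 hours, with cells grown in 96-well plates and compounds tested at five concentrations. TGI is the concentration that stops growth completely.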
Legend:
Test in all cases: NCI anticancer screen, dose series, 48 h
UACC-62 melanoma = test system: UACC-62 melanoma
SK-MEL-5 melanoma = test system: SK-MEL-5 melanoma
HOP-92 NSCLC = test system: HOP-92 NSCLC
SK-MEL-28 melanoma = test system: SK-MEL-28 melanoma
A549 NSCLC = test system: A549 NSCLC
TK-10 renal = test system: TK-10 renal
UO-31 renal = test system: UO-31 renal
ACHN renal = test system: ACHN renal
HOP-62 NSCLC = test system: HOP-62 NSCLC
NCI-H460 lung = test system: NCI-H460 lung
K-562 leukemia = test system: K-562 leukemia
SNB-19 CNS = test system: SNB-19 CNS
CCRF-CEM leukemia = test system: CCRF-CEM leukemia
BT-549 breast = test system: BT-549 breast
KM12 colon = test system: KM12 colon
SF-268 CNS = test system: SF-268 CNS
U251 CNS = test system: U251 CNS
HT29 colon = test system: HT29 colon
M14 melanoma = test system: M14 melanoma
SNB-75 CNS = test system: SNB-75 CNS
OVCAR-8 ovarian = test system: OVCAR-8 ovarian
OVCAR-3 ovarian = test system: OVCAR-3 ovarian
MALME-3M melanoma = test system: MALME-3M melanoma
HL-60(TB) leukemia = test system: HL-60(TB) leukemia
DU-145 prostate = test system: DU-145 prostate
IGROV1 ovarian = test system: IGROV1 ovarian
HCT-116 colon = test system: HCT-116 colon
NCI/ADR-RES ovarian = test system: NCI/ADR-RES ovarian
A498 renal = test system: A498 renal
RXF 393 renal = test system: RXF 393 renal
RPMI-8226 leukemia = test system: RPMI-8226 leukemia
SR leukemia = test system: SR leukemia
COLO 205 colon = test system: COLO 205 colon
SF-539 CNS = test system: SF-539 CNS
HCT-15 colon = test system: HCT-15 colon
SK-OV-3 ovarian = test system: SK-OV-3 ovarian
UACC-257 melanoma = test system: UACC-257 melanoma
MDA-N = test system: MDA-N
MCF7 breast = test system: MCF7 breast
PC-3 prostate = test system: PC-3 prostate
SF-295 CNS = test system: SF-295 CNS
SW-620 colon = test system: SW-620 colon
MOLT-4 leukemia = test system: MOLT-4 leukemia
NCI-H23 lung = test system: NCI-H23 lung
786-0 renal = test system: 786-0 renal
HS 578T breast = test system: HS 578T breast
EKVX NSCLC = test system: EKVX NSCLC
OVCAR-5 ovarian = test system: OVCAR-5 ovarian
SN12C renal = test system: SN12C renal
T-47D breast = test system: T-47D breast
NCI-H226 lung = test system: NCI-H226 lung
MDA-MB-435 = test system: MDA-MB-435
HCC-2998 colon = test system: HCC-2998 colon
NCI-H522 lung = test system: NCI-H522 lung
SK-MEL-2 melanoma = test system: SK-MEL-2 melanoma
OVCAR-4 ovarian = test system: OVCAR-4 ovarian
CAKI-1 renal = test system: CAKI-1 renal
MDA-MB-231 breast = test system: MDA-MB-231 breast

Measured: TGI

COc1cc(COC(=O)NC(Cc2cccs2)C(=O)O)c([N+](=O)[O-])cc1OC (configuration not stated)
> 100000 nM: SNB-75 CNS
> 100 µM: UACC-62 melanoma | SK-MEL-5 melanoma | HOP-92 NSCLC | SK-MEL-28 melanoma | A549 NSCLC | TK-10 renal | UO-31 renal | ACHN renal | HOP-62 NSCLC | NCI-H460 lung | K-562 leukemia | SNB-19 CNS | CCRF-CEM leukemia | BT-549 breast | KM12 colon | SF-268 CNS | U251 CNS | HT29 colon | M14 melanoma | OVCAR-8 ovarian | OVCAR-3 ovarian | MALME-3M melanoma | HL-60(TB) leukemia | DU-145 prostate | IGROV1 ovarian | HCT-116 colon | NCI/ADR-RES ovarian | A498 renal | RXF 393 renal | RPMI-8226 leukemia | SR leukemia | COLO 205 colon | SF-539 CNS | HCT-15 colon | SK-OV-3 ovarian | UACC-257 melanoma | MDA-N | MCF7 breast | PC-3 prostate | SF-295 CNS | SW-620 colon | MOLT-4 leukemia | NCI-H23 lung | 786-0 renal | HS 578T breast | EKVX NSCLC | OVCAR-5 ovarian | SN12C renal | T-47D breast | NCI-H226 lung | MDA-MB-435 | HCC-2998 colon

Nc1nc(N)c2ncn(Cc3ccccc3)c2n1
937 nM: SNB-75 CNS
> 100 µM: UACC-62 melanoma | SK-MEL-5 melanoma | HOP-92 NSCLC | NCI-H522 lung | SK-MEL-28 melanoma | A549 NSCLC | TK-10 renal | UO-31 renal | ACHN renal | HOP-62 NSCLC | SNB-19 CNS | CCRF-CEM leukemia | BT-549 breast | KM12 colon | SK-MEL-2 melanoma | SF-268 CNS | U251 CNS | HT29 colon | M14 melanoma | OVCAR-8 ovarian | OVCAR-3 ovarian | MALME-3M melanoma | DU-145 prostate | IGROV1 ovarian | HCT-116 colon | NCI/ADR-RES ovarian | A498 renal | RXF 393 renal | RPMI-8226 leukemia | COLO 205 colon | SF-539 CNS | HCT-15 colon | SK-OV-3 ovarian | UACC-257 melanoma | MDA-N | OVCAR-4 ovarian | MCF7 breast | PC-3 prostate | SF-295 CNS | SW-620 colon | MOLT-4 leukemia | NCI-H23 lung | CAKI-1 renal | 786-0 renal | HS 578T breast | EKVX NSCLC | OVCAR-5 ovarian | SN12C renal | MDA-MB-231 breast | T-47D breast | NCI-H226 lung | MDA-MB-435 | HCC-2998 colon

Source: PubChem BioAssay (NCI)
